Reference: patent US4894460A (Pierrel S.p.A., priority 1982, dated 1990)
pIC50: −log10 of the molar value. Where two headings read alike, the source gives them in different places.

How the values were obtained:
in vivo = conditions: mouse, iv, mice, i.v. in dimethylsulfoxide, after seven days, Litchfield and Wilcoxon
Protocol: Intravenous Toxicity in Mice
Male CD1 mice from Charles River (Italy), weighing 25 g were used. Compounds were administered intravenously (i.v.), dissolved in dimethylsulfoxide, and the volume of administration was 0.01 ml per 10 g of body weight. The LD50 after seven days, was calculated according to the method of Litchfield and Wilcoxon (Experimental Therapeutics 96, 99 (1949)).

taenia coli = test: Antagonistic activity to calcium in the taenia coli of guinea pigs (CaCl2-induced contractions, in vitro); format: cell-based, Hartley albino guinea pigs; conditions: for pIC50: Cavia porcellus, 10 min, read-out: Calcium antagonistic activity in vitro ED50; for Inhibition of contractions due to CaCl2 after washing of the tissue: taenia coli, repeated washing
Protocol: Antagonistic Activity to Calcium in the Taenia Coli of Guinea Pigs
Hartley albino guinea pigs of average weight 450 g were used. The calcium antagonistic activity was determined stimulating the taenia coli, previously depolarized, with a single submaximal concentration of CaCl2 (10^-3 M), at intervals of 20 minutes (according to the method Naunyn Schmied. Arch. Pharmacol. 318, 235 (1982)). The products were left in contact with the preparation for 10 minutes. The ED50 were calculated from the percentage of maximum inhibition.

[1] = test system: Spontaneous Hypertensive Rats (SHR); test: Hypotensive activity in spontaneous hypertensive rats (SHR); format: in vivo, Male SHR (Okamoto) rats; conditions: for ED (25%): Rattus norvegicus, po, p.o. in 0.4% carboxymethyl cellulose, systolic arterial pressure, read-out: Hypotensive activity in SHR ED^SABP -25%; for Hypotensive activity compared with Nifedipine / Duration of hypotensive activity (still present after) / Hypotensive activity relative to Nifedipine: p.o.; for Hypotensive activity compared with Nifedipine: versus Nifedipine; for Hypotensive activity relative to Nifedipine: multiple of Nifedipine activity
Protocol: Hypotensive Activity in Spontaneous Hypertensive Rats (SHR)
Male SHR (Okamoto), of 70-100 days of age were used. The systolic arterial pressure (SABP) was determined by applying to the tail of the animal a pressure transducer with a sleeve connected to a BP-Recorder (W-W Electronic of Basel). The animals were previously warmed to 39° C. for a period of 15-20 minutes in a ventilated chamber.
The rats were previously trained to the registration for 1-2 days prior to the start of the experiment which consisted of a basic registration, the pharmacological treatment and then of subsequent registrations one hour and three hours after the treatment.
All the products were administered orally (p.o.), suspended in 0.4% carboxymethyl cellulose (Methocel); the volume of vehicle was 2 ml per kg.
The compounds of formula (I) were tested at three dose levels and the value of ED-25% was determined.

[2] = guinea pig taenia coli, depolarized, CaCl2 10^-3 M, 10 min contact, from maximum inhibition

In the case of `COC(=O)C1=C(C)NC(C)=C(C(=O)OCCN2CCN(c3ccccc3)CC2)C1c1cccc([N+](=O)[O-])c1` (stereo not drawn) [0219A, 2-(4-Phenyl)piperazino-ethyl 2,6-dimethyl-4-(3-nitrophenyl)-5-methoxycarbonyl-1,4-dihydropyridine-3-carboxylate], the LD50 at 168 h (in vivo) was 8.6 mg/kg, the pIC50 (taenia coli; [2]) was 8.62 and the ED (25%) [1] was 8.7 mg/kg.
For `COC(=O)C1=C(C)NC(C)=C(C(=O)OCCN2CCN(c3nccs3)CC2)C1c1cccc([N+](=O)[O-])c1` (stereo not drawn) [0240A, 2-[4-(2-Thiazolyl)]piperazino-ethyl 2,6-dimethyl-4-(3-nitrophenyl)-5-methoxycarbonyl-1,4-dihydropyridine-3-carboxylate], the LD50 at 168 h (in vivo) was 7.1 mg/kg, the pIC50 (taenia coli; [2]) was 8.38 and the ED (25%) [1] was 31 mg/kg.
In the case of `COC(=O)C1=C(C)NC(C)=C(C(=O)OCCN2CCN(c3ncccn3)CC2)C1c1cccc([N+](=O)[O-])c1` (stereo not drawn) [0241A], the LD50 at 168 h (in vivo) was 34.6 mg/kg, the pIC50 (taenia coli; [2]) was 8.34 and the “Inhibition of contractions due to CaCl2 after washing of the tissue” value (taenia coli) was “readily reversible”. It also gave an ED (25%) [1] of 72 mg/kg.
For `COC(=O)C1=C(C)NC(C)=C(C(=O)OCCN2CCN(c3ccccc3OC)CC2)C1c1cccc([N+](=O)[O-])c1` (stereo not drawn) [0242A, 2-[4-(2-Methoxyphenyl)]-piperazino-ethyl 2,6-dimethyl-4-(3-nitrophenyl)-5-methoxycarbonyl-1,4-dihydropyridine-3-carboxylate], the LD50 at 168 h (in vivo) was 2.9 mg/kg, the pIC50 (taenia coli; [2]) was 8.47 and the ED (25%) [1] was 13.8 mg/kg.
`COC(=O)C1=C(C)NC(C)=C(C(=O)OCCN2CCN(c3ccccc3C)CC2)C1c1cccc([N+](=O)[O-])c1` (stereo not drawn) [0243A, 2-[4-(2-Tolyl)]piperazino-ethyl 2,6-dimethyl-4-(3-nitrophenyl)-5-methoxycarbonyl-1,4-dihydropyridine-3-carboxylate] gave an LD50 at 168 h (in vivo) of 14.7 mg/kg, a pIC50 (taenia coli; [2]) of 8.72 and an ED (25%) [1] of 6.6 mg/kg.
`COC(=O)C1=C(C)NC(C)=C(C(=O)OCCN2CCN(c3ccccc3Cl)CC2)C1c1cccc([N+](=O)[O-])c1` (stereo not drawn) [0248B] showed an LD50 at 168 h (in vivo) of 24.7 mg/kg, a pIC50 (taenia coli; [2]) of 8.52 and an ED (25%) [1] of 13.8 mg/kg. For the same molecule, the “Hypotensive activity compared with Nifedipine” value [1] was “superior activity”.
`COC(=O)C1=C(C)NC(C)=C(C(=O)OCCN2CCN(c3cccc(C(F)(F)F)c3)CC2)C1c1cccc([N+](=O)[O-])c1` (stereo not drawn) [0249B] showed an LD50 at 168 h (in vivo) of 35.3 mg/kg, a pIC50 (taenia coli; [2]) of 7.66 and an ED (25%) [1] of 6.6 mg/kg. The “Duration of hypotensive activity (still present after)” value (“Duration of hypotensive activity” below) [1] was at least 30 h, the “Hypotensive activity relative to Nifedipine” value [1] was “about twice the activity of Nifedipine” and the “Hypotensive activity compared with Nifedipine” value [1] was “superior activity”.
Molecule `COC(=O)C1=C(C)NC(C)=C(C(=O)OCCN2CCN(c3ccc(F)cc3)CC2)C1c1cccc([N+](=O)[O-])c1` (stereo not drawn) [0250B] has an LD50 at 168 h (in vivo) of 17.7 mg/kg, a pIC50 (taenia coli; [2]) of 8.60 and an ED (25%) [1] of 7.5 mg/kg. The “Duration of hypotensive activity” value [1] was at least 30 h, the “Hypotensive activity relative to Nifedipine” value [1] was “about twice the activity of Nifedipine” and the “Hypotensive activity compared with Nifedipine” value [1] was “superior activity”.
Molecule `COC(=O)C1=C(C)NC(C)=C(C(=O)OCCN2CCN(c3ccccn3)CC2)C1c1cccc([N+](=O)[O-])c1` (stereo not drawn) [0251B] has an LD50 at 168 h (in vivo) of 12.6 mg/kg, a pIC50 (taenia coli; [2]) of 8.34 and an ED (25%) [1] of 34 mg/kg.
With `COC(=O)C1=C(C)NC(C)=C(C(=O)OCCN2CCN(c3cccc(Cl)c3)CC2)C1c1cccc([N+](=O)[O-])c1` (stereo not drawn) [0255B] the LD50 at 168 h (in vivo) was 25.5 mg/kg, the pIC50 (taenia coli; [2]) was 8.46 and the ED (25%) [1] was 6.3 mg/kg. The “Hypotensive activity compared with Nifedipine” value [1] was “superior activity”.
For `COC(=O)C1=C(C)NC(C)=C(C(=O)OCCN2CCN(c3ccc(Cl)cc3)CC2)C1c1cccc([N+](=O)[O-])c1` (stereo not drawn) [0264B], the LD50 at 168 h (in vivo) was 32.1 mg/kg, the pIC50 (taenia coli; [2]) was 8.19 and the ED (25%) [1] was 6.3 mg/kg. For the same molecule, the “Duration of hypotensive activity” value [1] was at least 30 h, the “Hypotensive activity relative to Nifedipine” value [1] was “about twice the activity of Nifedipine” and the “Hypotensive activity compared with Nifedipine” value [1] was “superior activity”.
`COC(=O)C1=C(C)NC(C)=C(C(=O)OCCN2CCN(c3ccc(OC)cc3)CC2)C1c1cccc([N+](=O)[O-])c1` (stereo not drawn) [0266B] gave an LD50 at 168 h (in vivo) of 22.7 mg/kg, a pIC50 (taenia coli; [2]) of 8.44 and an ED (25%) [1] of 10.7 mg/kg.
`CC1=C(C(=O)OCCN2CCN(c3ccc(F)cc3)CC2)C(c2cccc([N+](=O)[O-])c2)C(C(=O)OCC(C)C)=C(C)N1` (stereo not drawn) [0282C] gave an LD50 at 168 h (in vivo) of 27.5 mg/kg, a pIC50 (taenia coli; [2]) of 8.31 and an ED (25%) [1] of 3.9 mg/kg.
With `COCCOC(=O)C1=C(C)NC(C)=C(C(=O)OCCN2CCN(c3ccc(F)cc3)CC2)C1c1cccc([N+](=O)[O-])c1` (stereo not drawn) [0283C] the LD50 at 168 h (in vivo) was 7.8 mg/kg, the pIC50 (taenia coli; [2]) was 8.59 and the ED (25%) [1] was 8.3 mg/kg.
For `CCOC(=O)C1=C(C)NC(C)=C(C(=O)OCCN2CCN(c3ccc(F)cc3)CC2)C1c1cccc([N+](=O)[O-])c1` (stereo not drawn) [0284C], the LD50 at 168 h (in vivo) was 9.5 mg/kg, the pIC50 (taenia coli; [2]) was 8.89 and the ED (25%) [1] was 5.3 mg/kg.
With `COC(=O)C1=C(C)NC(C)=C(C(=O)OCCN2CCN(c3ccc(Cl)c(Cl)c3)CC2)C1c1cccc([N+](=O)[O-])c1` (stereo not drawn) [0285C] the LD50 at 168 h (in vivo) was 39 mg/kg, the pIC50 (taenia coli; [2]) was 7.98 and the ED (25%) [1] was 10.2 mg/kg.
For `CC1=C(C(=O)OCCN2CCN(c3ccccc3)CC2)C(c2cccc([N+](=O)[O-])c2)C(C(=O)OCC(C)C)=C(C)N1` (stereo not drawn) [0289C, 2-(4-Phenyl)piperazinoethyl-2,6-dimethyl-4-(3-nitrophenyl)-5-isobutoxycarbonyl-1,4-dihydropyridine-3-carboxylate], the LD50 at 168 h (in vivo) was 12 mg/kg, the pIC50 (taenia coli; [2]) was 8.20 and the ED (25%) [1] was 2.2 mg/kg.
`COCCOC(=O)C1=C(C)NC(C)=C(C(=O)OCCN2CCN(c3ccccc3)CC2)C1c1cccc([N+](=O)[O-])c1` (stereo not drawn) [0290C, 2-(4-Phenyl)piperazinoethyl-2,6-dimethyl-4-(3-nitrophenyl)-5-(2-methoxy)ethoxycarbonyl-1,4-dihydropyridine-3-carboxylate] showed an LD50 at 168 h (in vivo) of 7.5 mg/kg, a pIC50 (taenia coli; [2]) of 8.52 and an ED (25%) [1] of 16.7 mg/kg.
In the case of `CCOC(=O)C1=C(C)NC(C)=C(C(=O)OCCN2CCN(c3ccccc3)CC2)C1c1cccc([N+](=O)[O-])c1` (stereo not drawn) [0291C], the LD50 at 168 h (in vivo) was 25 mg/kg, the pIC50 (taenia coli; [2]) was 8.41 and the ED (25%) [1] was 6.6 mg/kg.
Molecule `CC1=C(C(=O)OCCN2CCN(c3ccc(Cl)cc3)CC2)C(c2cccc([N+](=O)[O-])c2)C(C(=O)OCC(C)C)=C(C)N1` (stereo not drawn) [0292C, 2-[4-(4-Chlorophenyl)]piperazinoethyl-2,6-dimethyl-4-(3-nitrophenyl)-5-isobutoxycarbonyl-1,4-dihydropyridine-3-carboxylate] has an LD50 at 168 h (in vivo) of 35 mg/kg, a pIC50 (taenia coli; [2]) of 7.03 and an ED (25%) [1] of 11.7 mg/kg.
Work on `COCCOC(=O)C1=C(C)NC(C)=C(C(=O)OCCN2CCN(c3ccc(Cl)cc3)CC2)C1c1cccc([N+](=O)[O-])c1` (stereo not drawn) [0293C, 2-[4-(4-Chlorophenyl)]piperazinoethyl-2,6-dimethyl-4-(3-nitrophenyl)-5-(2-methoxy)ethoxycarbonyl-1,4-dihydropyridine-3-carboxylate] yielded an LD50 at 168 h (in vivo) of 16 mg/kg, a pIC50 (taenia coli; [2]) of 8.39 and an ED (25%) [1] of 10.5 mg/kg.
`CCOC(=O)C1=C(C)NC(C)=C(C(=O)OCCN2CCN(c3ccc(Cl)cc3)CC2)C1c1cccc([N+](=O)[O-])c1` (stereo not drawn) [0294C, 2-[4-(4-Chlorophenyl)]piperazinoethyl-2,6-dimethyl-4-(3-nitrophenyl)-5-ethoxycarbonyl-1,4-dihydropyridine-3-carboxylate] showed an LD50 at 168 h (in vivo) of 19 mg/kg, a pIC50 (taenia coli; [2]) of 8.29 and an ED (25%) [1] of 4.2 mg/kg.
In the case of `COC(=O)C1=C(C)NC(C)=C(C(=O)OCCN2CCN(c3ccc([N+](=O)[O-])cc3)CC2)C1c1cccc([N+](=O)[O-])c1` (stereo not drawn) [0295C, 2-[4-(4-Nitrophenyl)]piperazinoethyl-2,6-dimethyl-4-(3-nitrophenyl)-5-methoxycarbonyl-1,4-dihydropyridine-3-carboxylate], the LD50 at 168 h (in vivo) was 38 mg/kg, the pIC50 (taenia coli) was 7.96 and the ED (25%) [1] was over 20 mg/kg.
With `COC(=O)C1=C(C)NC(C)=C(C(=O)OCCN2CCN(c3ccc([N+](=O)[O-])c(C(F)(F)F)c3)CC2)C1c1cccc([N+](=O)[O-])c1` (stereo not drawn) [0296C, 2-[4-(3-Trifluoromethyl-4-nitrophenyl)]piperazinoethyl-2,6-dimethyl-4-(3-nitrophenyl)-5-methoxycarbonyl-1,4-dihydropyridine-3-carboxylate] the LD50 at 168 h (in vivo) was 55 mg/kg, the pIC50 (taenia coli) was 7.72 and the ED (25%) [1] was 87 mg/kg.
`COC(=O)C1=C(C)NC(C)=C(C(=O)OCCN(C)Cc2ccccc2)C1c1cccc([N+](=O)[O-])c1` (stereo not drawn) [Nicardipine, reference compound] gave a pIC50 (taenia coli; [2]) of 8.64 and an ED (25%) [1] of 8.6 mg/kg.
With `COC(=O)C1=C(C)NC(C)=C(C(=O)OC)C1c1ccccc1[N+](=O)[O-]` [Nifedipine, reference compound] the pIC50 (taenia coli) was 8.59, the “Inhibition of contractions due to CaCl2 after washing of the tissue” value (taenia coli) was “readily reversible” and the ED (25%) [1] was 25 mg/kg.
`CCOC(=O)C1=C(C)NC(C)=C(C(=O)OC)C1c1cccc([N+](=O)[O-])c1` (stereo not drawn) [Nitrendipine, reference compound] gave a pIC50 (taenia coli; [2]) of 8.72.
